Laboratory results from ChEMBL document CHEMBL1138816, “Design and synthesis of novel N-acetylgalactosamine-terminated glycolipids for targeting of lipoproteins to the hepatic asialoglycoprotein receptor” (J Med Chem, 2004).

Key:
Mus musculus [1] = experiment: Percentage liver uptake of [3H]HDL upon intravenous injection to C57BL/6J mice
[2] = Half-life in C57BL/6J mice upon intravenous administration of 3.33 mg/kg; assay type: ADME, organism-based; parameters: dose 3.33 mg/kg, route intravenous; details: mouse, in vivo
[3] = Binding affinity for mouse asialoglycoprotein receptor using [125I]-glycolipid3
Mus musculus [4] = species: Mus musculus; experiment: Lipoprotein lowering effect in mice at 3-6 hrs was determined; assay type: functional
[5] = Uptake by the liver in mice at 60 min after injection; assay type: ADME, tissue-based; details: mouse, in vivo, 1 h
Mus musculus [6] = experiment: Percentage liver uptake of [125I]LDL upon intravenous injection to C57BL/6J mice; assay type: functional

Question: Which Activity (Mus musculus [1]) does the source give for `CCCCCCCC/C=C\CCCCCCCC(=O)N[C@H]1CC[C@@]2(C)C(CC[C@H]3[C@@H]4CC[C@H](C(C)CCC(=O)N[C@@H](Cc5ccc(O)cc5)C(=O)NCC(=O)NC(COCCC(=O)NCCOCCOCCOC5OC(CO)C(O)C(O)C5NC(C)=O)(COCCC(=O)NCCOCCOCCOC5OC(CO)C(O)C(O)C5NC(C)=O)COCCC(=O)NCCOCCOCCOC5OC(CO)C(O)C(O)C5NC(C)=O)[C@@]4(C)CC[C@@H]32)C1` (stereo partly specified) here?
Answer: The Activity was 78%.

Question: And the half-life [2]?
Answer: The half-life was about 30 min.

Question: What about the Ki [3] of the same compound?
Answer: The Ki was 2 nM.

Question: And the Peak effect (Mus musculus [4])?
Answer: Its Peak effect is 20%.

Question: What about the Uptake [5] of the same compound?
Answer: Its Uptake is 44%.

Question: What about the Activity (Mus musculus [6]) of the same compound?
Answer: The Activity was 70%.
